Laboratory results reported in ChEMBL document CHEMBL4190314, “Quinoline hybrids and their antiplasmodial and antimalarial activities” (Eur J Med Chem, 2017).

Tests used:
Type in all cases: functional, organism-based
Plasmodium falciparum [1] = assay: Antimalarial activity against Plasmodium falciparum 3D7 infected in human erythrocytes after 72 hrs by SYBR Green-1 staining based fluorescence assay; settings: 3D7, 72 h
Plasmodium falciparum [2] = assay: Antimalarial activity against synchronous culture of Plasmodium falciparum W2 ring stage infected in human erythrocytes after 48 hrs by flow cytometry; settings: W2, 48 h
Plasmodium falciparum [3] = assay: Antimalarial activity against chloroquine-sensitive Plasmodium falciparum 3D7 infected in human erythrocytes after 72 hrs by SYBR Green-1 staining based fluorescence assay; settings: 3D7, 72 h

C=C[C@H]1CN2CC[C@H]1C[C@H]2[C@H](OC(=O)CNC(=O)[C@@H](NC(=O)OCc1ccccc1)[C@@H](C)CC)c1ccnc2ccc(OC)cc12
IC50 (Plasmodium falciparum [1]): < 100 nM

O=C(/C=C/c1ccc(F)cc1)NCCCCNc1ccnc2cc(Cl)ccc12
IC50 (Plasmodium falciparum [2]): 11 to 59 nM

C=C[C@H]1CN2CC[C@H]1C[C@H]2[C@H](OC(=O)[C@H](COCc1ccccc1)NC(=O)OC(C)(C)C)c1ccnc2ccc(OC)cc12
IC50 (Plasmodium falciparum [1]): < 100 nM

C=C[C@H]1CN2CC[C@H]1C[C@H]2[C@H](OC(=O)[C@H](CC(C)C)NC(=O)c1cn(CC)c2nc(C)ccc2c1=O)c1ccnc2ccc(OC)cc12
IC50 (Plasmodium falciparum [3]): 12 to 207 nM

C=C[C@H]1CN2CC[C@H]1C[C@H]2[C@H](OC(=O)CNC(=O)OC(C)(C)C)c1ccnc2ccc(OC)cc12
IC50 (Plasmodium falciparum [1]): < 100 nM

O=C(/C=C/c1ccc(Cl)cc1)NCCCCNc1ccnc2cc(Cl)ccc12
IC50 (Plasmodium falciparum [2]): 11 to 59 nM

COc1ccc(/C=C/C(=O)NCCCCNc2ccnc3cc(Cl)ccc23)cc1OC
IC50 (Plasmodium falciparum [2]): 11 to 59 nM

O=C(/C=C/c1ccc(Br)cc1)NCCCCNc1ccnc2cc(Cl)ccc12
IC50 (Plasmodium falciparum [2]): 11 to 59 nM

O=C(/C=C/c1ccccc1)NCCCCNc1ccnc2cc(Cl)ccc12
IC50 (Plasmodium falciparum [2]): 11 to 59 nM

C=C[C@H]1CN2CC[C@H]1C[C@H]2[C@H](OC(=O)[C@H](C)NC(=O)c1cn2c3c(c(N4CCN(C)CC4)c(F)cc3c1=O)OC[C@@H]2C)c1ccnc2ccc(OC)cc12
IC50 (Plasmodium falciparum [3]): 12 nM

O=C(/C=C/c1ccccc1[N+](=O)[O-])NCCCCNc1ccnc2cc(Cl)ccc12
IC50 (Plasmodium falciparum [2]): 11 to 59 nM

O=C(/C=C/c1cccc([N+](=O)[O-])c1)NCCCCNc1ccnc2cc(Cl)ccc12
IC50 (Plasmodium falciparum [2]): 11 to 59 nM

Cc1ccc(/C=C/C(=O)NCCCCNc2ccnc3cc(Cl)ccc23)cc1
IC50 (Plasmodium falciparum [2]): 11 to 59 nM

C=C[C@H]1CN2CC[C@H]1C[C@H]2[C@H](OC(=O)[C@H](Cc1cn(S(=O)(=O)c2ccc(C)cc2)cn1)NC(=O)OC(C)(C)C)c1ccnc2ccc(OC)cc12
IC50 (Plasmodium falciparum [1]): < 100 nM

C=C[C@H]1CN2CC[C@H]1C[C@H]2[C@H](OC(=O)[C@H](CCCCNC(=O)OCc1ccccc1)NC(=O)OCc1ccccc1)c1ccnc2ccc(OC)cc12
IC50 (Plasmodium falciparum [1]): < 100 nM

CN(C)c1ccc(/C=C/C(=O)NCCCCNc2ccnc3cc(Cl)ccc23)cc1
IC50 (Plasmodium falciparum [2]): 11 to 59 nM

C=C[C@H]1CN2CC[C@H]1C[C@H]2[C@H](OC(=O)[C@H](CCC(=O)OCc1ccccc1)NC(=O)OC(C)(C)C)c1ccnc2ccc(OC)cc12
IC50 (Plasmodium falciparum [1]): < 100 nM

O=C(/C=C/c1cccc(F)c1)NCCCCNc1ccnc2cc(Cl)ccc12
IC50 (Plasmodium falciparum [2]): 11 to 59 nM

C=C[C@H]1CN2CC[C@H]1C[C@H]2[C@H](OC(=O)[C@H](C)NC(=O)OC(C)(C)C)c1ccnc2ccc(OC)cc12
IC50 (Plasmodium falciparum [1]): < 100 nM

C=C[C@H]1CN2CC[C@H]1C[C@H]2[C@H](OC(=O)[C@H](C)NC(=O)[C@H](Cc1ccccc1)NC(=O)CNC(=O)OCc1ccccc1)c1ccnc2ccc(OC)cc12
IC50 (Plasmodium falciparum [1]): < 100 nM

C=C[C@H]1CN2CC[C@H]1C[C@H]2[C@H](OC(=O)[C@@H](CSCc1ccccc1)NC(=O)OCc1ccccc1)c1ccnc2ccc(OC)cc12
IC50 (Plasmodium falciparum [1]): < 100 nM

COc1ccc(/C=C/C(=O)NCCCCNc2ccnc3cc(Cl)ccc23)cc1
IC50 (Plasmodium falciparum [2]): 11 to 59 nM

CC(C)c1ccc(/C=C/C(=O)NCCCCNc2ccnc3cc(Cl)ccc23)cc1
IC50 (Plasmodium falciparum [2]): 11 to 59 nM

Nc1ccc(/C=C/C(=O)NCCCCNc2ccnc3cc(Cl)ccc23)cc1
IC50 (Plasmodium falciparum [2]): 11 to 59 nM

C=C[C@H]1CN2CC[C@H]1C[C@H]2[C@H](O)c1ccnc2ccc(OC)cc12 [QUININE]
IC50 (Plasmodium falciparum [1]): 18 nM

C=C[C@H]1CN2CC[C@H]1C[C@H]2[C@H](OC(=O)[C@H](Cc1ccccc1)NC(=O)OC(C)(C)C)c1ccnc2ccc(OC)cc12
IC50 (Plasmodium falciparum [1]): < 100 nM

O=C(/C=C/c1ccc([N+](=O)[O-])cc1)NCCCCNc1ccnc2cc(Cl)ccc12
IC50 (Plasmodium falciparum [2]): 11 to 59 nM

C=C[C@H]1CN2CC[C@H]1C[C@H]2[C@H](OC(=O)[C@H](CC(=O)OCc1ccccc1)NC(=O)OCc1ccccc1)c1ccnc2ccc(OC)cc12
IC50 (Plasmodium falciparum [1]): 17 nM
